Biological target: PHL (Photorhabdus asymbiotica, UniProt C7BLE4)
Assay: SPR competitive inhibition of PHL binding to α-L-fucoside sensor chip
Conditions: for IC50: 25 °C, three independent measurements; for β L-Fuc (affinity improvement factor): IC50,basic unit/(valency × IC50,ligand), basic unit L-Fuc; for PotencyL-Fuc: IC50 L-fucose / IC50 ligand; for β Azide1 (affinity improvement factor): basic unit azide 1
Protocol: To analyse the competitive inhibition of PHL binding to a multivalent surface, the surface plasmon resonance (SPR) technique was employed. A sensor chip presenting α-L-fucopyranoside residues was treated with a constant concentration of PHL, while an increasing concentration of the ligands was used to determine IC50 (Table 2, Fig. 3). […] To assess the contribution of valency to the affinity increase, an affinity improvement factor β was calculated as the relationship IC50,basic unit/(valency × IC50,ligand)[30].
Surface plasmon resonance (SPR) experiments were performed on a BIAcore T200 instrument (GE Healthcare, UK) at 25 °C, using buffer A supplemented with 0.05% Tween 20 as a running buffer. α-L-fucoside was immobilized onto CM5 sensor chip (GE Healthcare, UK) covered with a carboxymethylated dextran matrix. The sensor chip surface was activated with N-ethyl-N-(3-dimethylaminopropyl)carbodiimide/N-hydroxysuccinimide solution and then coated with streptavidin using the manufacturer’s standard protocol using HBS buffer (10 mM HEPES, 150 mM NaCl, 0.05% Tween 20, pH 7. 5). Unreacted groups were blocked with 1 M ethanolamine-HCl, pH 8.5. Biotinylated carbohydrate (biotinilated monomeric probes, Lectinity, Russia) was injected onto particular measuring channel and pure biotin on blank channel at a flow rate of 5 μl/min.
SPR inhibition measurements were carried out on measuring channel with L-fucoside at a flow rate of 5 µl/min. PHL was diluted to a concentration of 20 μg/ml by the buffer A supplemented with 0.05% Tween 20, mixed 1:1 (v/v) with various concentrations of inhibitors (500–5 μM) in the same buffer and injected onto the sensor chip. The response of lectin bound to the sugar surface at equilibrium was plotted against the concentration of inhibitor in order to determine IC50 (concentration of inhibitor resulting in 50% inhibition of binding). As IC50 is not a constant and depends on the experimental set-up, a parameter called potency was used for characterization. The potency of a tested inhibitor is the ratio of IC50 of a chosen standard inhibitor (in this case L-fucose) and the inhibitor in question. Pure PHL lectin was used as a control (0% inhibition) and channel with pure biotin served as a blank. IC50 was determined from triplicates.

Sequence of PHL (C7BLE4 entry or part of it): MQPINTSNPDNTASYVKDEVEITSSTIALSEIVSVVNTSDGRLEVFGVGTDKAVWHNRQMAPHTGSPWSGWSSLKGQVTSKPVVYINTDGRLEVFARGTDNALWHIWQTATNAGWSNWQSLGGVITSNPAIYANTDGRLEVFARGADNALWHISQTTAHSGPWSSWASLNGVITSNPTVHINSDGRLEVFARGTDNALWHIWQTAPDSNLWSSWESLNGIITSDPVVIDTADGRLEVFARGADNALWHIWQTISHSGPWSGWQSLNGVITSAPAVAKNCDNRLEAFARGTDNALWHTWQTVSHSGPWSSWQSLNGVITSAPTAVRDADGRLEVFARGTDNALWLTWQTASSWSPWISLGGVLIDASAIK

Row | SMILES | IC50 | β L-Fuc (affinity improvement factor) | PotencyL-Fuc | β Azide1 (affinity improvement factor) | PotencyAzide1 (relative to azide 1)
1 | C[C@@H]1O[C@@H](CCN=[N+]=[N-])[C@@H](O)[C@H](O)[C@@H]1O [Azide 1] | 11.5 ± 1.4 µM | 32 | 32 | 1 | 
2 | C[C@@H]1O[C@@H](CCn2cc(COCC(COCc3cn(CC[C@@H]4O[C@@H](C)[C@@H](O)[C@@H](O)[C@@H]4O)nn3)(COCc3cn(CC[C@@H]4O[C@@H](C)[C@@H](O)[C@@H](O)[C@@H]4O)nn3)COCc3cn(CC[C@@H]4O[C@@H](C)[C@@H](O)[C@@H](O)[C@@H]4O)nn3)nn2)[C@@H](O)[C@H](O)[C@@H]1O [Dendrimer 8] | 0.188 ± 0.037 µM | 481 | 1,922 | approximately 15 | 65

From publication PMC6797808, “Fucosylated inhibitors of recently identified bangle lectin from Photorhabdus asymbiotica” (Scientific Reports, 2019)
